Data: ChEMBL document CHEMBL1201862, “PubChem BioAssay data set” (2004)
Activity calls are given as the source filed them.

Legend:
[1] = biological target: T1, Alkaline phosphatase, tissue-nonspecific isozyme (Homo sapiens, UniProt P05186); test: human TNAP enzyme inhibitors, SAR follow-up, biochemical, luminescent, dose response (AID 1056)
T1 sequence (P05186 whole entry): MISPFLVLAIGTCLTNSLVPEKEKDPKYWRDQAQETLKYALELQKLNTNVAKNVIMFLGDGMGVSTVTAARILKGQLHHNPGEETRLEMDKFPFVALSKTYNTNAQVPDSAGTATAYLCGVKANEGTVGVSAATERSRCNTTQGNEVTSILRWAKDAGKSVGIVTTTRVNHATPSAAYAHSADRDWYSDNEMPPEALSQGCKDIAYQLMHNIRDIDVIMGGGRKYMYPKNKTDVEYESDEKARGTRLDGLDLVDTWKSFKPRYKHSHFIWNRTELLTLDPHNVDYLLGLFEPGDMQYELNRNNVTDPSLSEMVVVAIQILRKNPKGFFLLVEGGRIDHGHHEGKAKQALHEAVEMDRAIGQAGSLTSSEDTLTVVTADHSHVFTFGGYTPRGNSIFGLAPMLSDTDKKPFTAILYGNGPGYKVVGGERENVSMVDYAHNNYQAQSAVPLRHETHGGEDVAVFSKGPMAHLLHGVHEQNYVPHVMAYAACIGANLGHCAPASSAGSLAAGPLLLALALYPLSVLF

Leucine aminopeptidase = biological target: T2, Leucine aminopeptidase (Plasmodium falciparum 3D7, UniProt Q8IL11); test: P. falciparum M17LAP inhibitors, primary screen, biochemical, fluorogenic H-Leu-NHMec substrate, 1536-well (AID 1619); format: functional
T2 sequence (Q8IL11 whole entry): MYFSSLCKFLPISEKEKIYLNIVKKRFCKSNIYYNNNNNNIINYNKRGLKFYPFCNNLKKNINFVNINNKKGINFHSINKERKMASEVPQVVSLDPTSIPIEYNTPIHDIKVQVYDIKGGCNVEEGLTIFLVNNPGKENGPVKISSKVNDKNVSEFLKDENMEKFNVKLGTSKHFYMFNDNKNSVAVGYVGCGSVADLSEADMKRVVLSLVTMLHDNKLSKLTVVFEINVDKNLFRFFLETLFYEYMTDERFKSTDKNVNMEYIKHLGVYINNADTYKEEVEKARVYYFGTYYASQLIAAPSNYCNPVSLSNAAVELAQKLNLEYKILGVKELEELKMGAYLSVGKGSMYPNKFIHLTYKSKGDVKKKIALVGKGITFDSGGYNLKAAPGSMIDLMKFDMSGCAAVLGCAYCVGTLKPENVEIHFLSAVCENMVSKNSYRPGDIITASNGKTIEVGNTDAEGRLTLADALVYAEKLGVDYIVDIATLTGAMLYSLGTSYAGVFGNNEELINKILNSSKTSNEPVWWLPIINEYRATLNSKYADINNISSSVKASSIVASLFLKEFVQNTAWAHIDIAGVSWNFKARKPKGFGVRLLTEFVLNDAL

[2] = biological target: Alkaline phosphatase, placental type (Homo sapiens, UniProt P05187); test: PLAP enzyme inhibitors, confirmation, biochemical, luminescence (AID 1512); format: functional
Cannabinoid receptor 1 [3] = biological target: T3, Cannabinoid receptor 1 (Homo sapiens, UniProt P21554); test: SAR analysis of antagonists of the Cannabinoid Receptor 1 using an Image-Based Assay - Set 2. [Related pubchem assays (depositor defined):AID2013, AID2026]; format: functional
Cannabinoid receptor 2 [4] = biological target: T4, Cannabinoid receptor 2 (Homo sapiens, UniProt P34972); test: SAR analysis of antagonists of the Cannabinoid Receptor 2 using an Image-Based Assay. [Related pubchem assays (depositor defined):AID2013, AID2026]; format: functional
Cannabinoid receptor 2 [5] = biological target: T4, Cannabinoid receptor 2; test: SAR analysis of agonists of the Cannabinoid Receptor 2 using an Image-Based Assay. [Related pubchem assays (depositor defined):AID2013, AID2026]; format: functional
[6] = biological target: G-protein coupled receptor 55 (Homo sapiens, UniProt Q9Y2T6); test: GPR55 antagonists blocking LPI-driven arrestin recruitment, primary screen, imaging, U2OS, beta-arrestin-GFP, LPI agonist (AID 2013); format: functional;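 further: antagonist potency measured as reduced agonist-driven arrestin aggregation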
[7] = biological target: T5, G-protein coupled receptor 35 (Homo sapiens, UniProt Q9HC97); test: SAR analysis of Agonists of the GPR35 Receptor using an Image-Based Assay - Set 2. [Related pubchem assays (depositor defined):AID2013, AID2026]; format: functional
Cannabinoid receptor 1 [8] = biological target: T3, Cannabinoid receptor 1; test: SAR analysis of agonists of the Cannabinoid Receptor 1 using an Image-Based Assay - Set 2. [Related pubchem assays (depositor defined):AID2013, AID2026]; format: functional
[9] = biological target: T5, G-protein coupled receptor 35; test: SAR analysis of Antagonists of the GPR35 Receptor using an Image-Based Assay - Set 3. [Related pubchem assays (depositor defined):AID2013, AID2026]; format: functional

T5 sequence (Q9HC97 whole entry): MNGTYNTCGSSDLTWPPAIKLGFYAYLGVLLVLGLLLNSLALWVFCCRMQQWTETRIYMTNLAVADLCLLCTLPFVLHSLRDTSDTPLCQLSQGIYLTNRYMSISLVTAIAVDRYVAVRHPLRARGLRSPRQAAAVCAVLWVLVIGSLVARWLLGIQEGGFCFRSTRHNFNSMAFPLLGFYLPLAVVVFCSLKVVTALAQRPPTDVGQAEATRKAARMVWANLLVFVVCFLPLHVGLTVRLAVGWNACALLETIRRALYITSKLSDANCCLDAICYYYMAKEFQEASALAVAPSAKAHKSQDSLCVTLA
T3 sequence (P21554 whole entry): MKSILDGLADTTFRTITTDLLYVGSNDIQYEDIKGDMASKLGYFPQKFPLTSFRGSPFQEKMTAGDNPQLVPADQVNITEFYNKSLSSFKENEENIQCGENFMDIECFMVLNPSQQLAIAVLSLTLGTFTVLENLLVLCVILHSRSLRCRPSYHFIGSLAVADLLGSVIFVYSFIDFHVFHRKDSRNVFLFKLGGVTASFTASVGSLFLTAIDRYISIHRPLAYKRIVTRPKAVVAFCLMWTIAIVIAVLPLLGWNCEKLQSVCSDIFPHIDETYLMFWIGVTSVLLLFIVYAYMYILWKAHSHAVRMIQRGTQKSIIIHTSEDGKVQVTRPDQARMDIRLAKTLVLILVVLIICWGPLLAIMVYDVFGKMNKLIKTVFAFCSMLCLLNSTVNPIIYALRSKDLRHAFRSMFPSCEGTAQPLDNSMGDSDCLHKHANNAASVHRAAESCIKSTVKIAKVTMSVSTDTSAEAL
T4 sequence (P34972 whole entry): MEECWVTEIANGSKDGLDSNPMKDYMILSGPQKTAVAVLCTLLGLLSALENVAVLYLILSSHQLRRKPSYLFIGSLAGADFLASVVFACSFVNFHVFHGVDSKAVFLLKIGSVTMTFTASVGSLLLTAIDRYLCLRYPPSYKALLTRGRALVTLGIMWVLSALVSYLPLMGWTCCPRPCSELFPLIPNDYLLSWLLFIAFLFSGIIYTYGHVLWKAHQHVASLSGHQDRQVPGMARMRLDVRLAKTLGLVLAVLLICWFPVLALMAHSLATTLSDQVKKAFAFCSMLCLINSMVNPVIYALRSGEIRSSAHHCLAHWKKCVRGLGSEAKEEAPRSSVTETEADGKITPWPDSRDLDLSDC
Sequence of G-protein coupled receptor 55 (Q9Y2T6 whole entry): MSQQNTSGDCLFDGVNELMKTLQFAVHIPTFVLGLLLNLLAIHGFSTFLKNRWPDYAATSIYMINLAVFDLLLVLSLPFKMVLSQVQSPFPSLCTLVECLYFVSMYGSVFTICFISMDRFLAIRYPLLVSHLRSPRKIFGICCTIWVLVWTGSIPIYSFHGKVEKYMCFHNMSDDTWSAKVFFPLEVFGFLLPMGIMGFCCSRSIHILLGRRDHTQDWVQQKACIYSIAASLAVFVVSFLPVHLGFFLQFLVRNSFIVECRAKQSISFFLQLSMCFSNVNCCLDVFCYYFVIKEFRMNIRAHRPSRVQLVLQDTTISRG
Sequence of Alkaline phosphatase, placental type (P05187 whole entry): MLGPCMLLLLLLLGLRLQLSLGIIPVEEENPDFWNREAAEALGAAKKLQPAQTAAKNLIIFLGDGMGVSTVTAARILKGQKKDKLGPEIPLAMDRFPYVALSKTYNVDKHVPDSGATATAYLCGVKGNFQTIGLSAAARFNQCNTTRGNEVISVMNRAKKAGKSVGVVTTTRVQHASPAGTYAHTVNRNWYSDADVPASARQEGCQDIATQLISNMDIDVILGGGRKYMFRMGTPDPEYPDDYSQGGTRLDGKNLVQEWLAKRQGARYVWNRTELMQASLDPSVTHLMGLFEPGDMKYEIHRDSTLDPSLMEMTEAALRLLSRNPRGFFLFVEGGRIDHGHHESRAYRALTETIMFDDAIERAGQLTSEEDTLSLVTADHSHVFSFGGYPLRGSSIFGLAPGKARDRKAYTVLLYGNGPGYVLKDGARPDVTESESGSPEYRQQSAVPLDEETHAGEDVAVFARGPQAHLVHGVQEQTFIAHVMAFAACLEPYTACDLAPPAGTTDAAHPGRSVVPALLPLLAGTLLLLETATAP

IC50 [1]	IC50 (Leucine aminopeptidase)	IC50 [2]	SMILES	IC50 (Cannabinoid receptor 1 [3])	IC50 (Cannabinoid receptor 2 [4])	EC50 (Cannabinoid receptor 2 [5])	IC50 [6]	EC50 [7]	EC50 (Cannabinoid receptor 1 [8])	IC50 [9]
35.8 µM (active)	13.3 µM (active)	4.32 µM (active)	CCn1c(SCC(=O)c2ccc(O)c(O)c2)nnc1-c1ccccc1	–	–	–	–	–	–	–
–	–	–	Cc1nc(N2CCN(C(=O)c3ccco3)CC2)c2c3c(sc2n1)CCCC3	> 32 µM (inactive)	> 32 µM (inactive)	> 32 µM (inactive)	1.58 µM (active)	> 32 µM (inactive)	> 32 µM (inactive)	> 32 µM (inactive)
